Assay [1] relates to Mus musculus. Put plainly: Antitussive activity in ammonia liquor-induced cough ICR mouse model assessed as reduction in cough frequency at 50 mg/kg, po treated with ammonia 1 hr before and 1 to 5 hrs after test compound dosing measured for 3 mins relative to control. The format is functional. Further details: scale not given: the % may be the effect or the level left.
Assay [2] has as its system Mus musculus. Put plainly: Expectorant activity in ICR mouse assessed as increase in phenol red secretion in trachea at 50 mg/kg, po for 3 days followed by phenol red treatment at 30 mins post last dose measured after 30 mins by UV-Vis spectrophotometric assay relative to control. It is filed as functional.
For assay [3], the system named is Mus musculus. Put plainly: Antitussive activity in ammonia liquor-induced cough ICR mouse model assessed as increase in latent period at 50 mg/kg, po treated with ammonia 1 hr before and 1 hr after test compound dosing measured at 1 hr post dose. It is filed as functional, organism-based.
The subject of assay [4] is Mus musculus. Briefly: Antitussive activity in ammonia liquor-induced cough ICR mouse model assessed as reduction in cough frequency at 50 mg/kg, po treated with ammonia 1 hr before and 2.5 hrs after test compound dosing measured for 3 mins relative to control. The format is functional. Further details: scale not given: the % may be the effect or the level left.
Assay [5] relates to Mus musculus. Put plainly: Antitussive activity in ammonia liquor-induced cough ICR mouse model assessed as reduction in cough frequency at 50 mg/kg, po treated with ammonia 1 hr before and 1 hr after test compound dosing measured for 3 mins relative to control. It is filed as functional. Also on record: scale not given: the % may be the effect or the level left.
Assay [6] concerns Mus musculus. Put plainly: Antitussive activity in ammonia liquor-induced cough ICR mouse model assessed as reduction in cough frequency at 50 mg/kg, po treated with ammonia 1 hr before and 5 hrs after test compound dosing measured for 3 mins relative to control. It is filed as functional. Also on record: scale not given: the % may be the effect or the level left.
Assay [7] deals with Mus musculus. Put plainly: Antitussive activity in ammonia liquor-induced cough ICR mouse model assessed as reduction in cough frequency at 20 mg/kg, po treated with ammonia 1 hr before and 1 hr after test compound dosing measured for 3 mins. The format is functional, organism-based.
The test system of assay [8] is Mus musculus. Briefly: Antitussive activity in ammonia liquor-induced cough ICR mouse model assessed as reduction in cough frequency at 20 mg/kg, po treated with ammonia 1 hr before and 2.5 hrs after test compound dosing measured for 3 mins. The format is functional, organism-based.
For assay [9], the system named is Mus musculus. Put plainly: Antitussive activity in ammonia liquor-induced cough ICR mouse model assessed as reduction in cough frequency at 20 mg/kg, po treated with ammonia 1 hr before and 5 hrs after test compound dosing measured for 3 mins. It is filed as functional, organism-based.
The subject of assay [10] is Mus musculus. Briefly: Antitussive activity in ammonia liquor-induced cough ICR mouse model assessed as reduction in cough frequency at 50 mg/kg, po treated with ammonia 1 hr before and 1 hr after test compound dosing measured for 3 mins in presence of 5-HT receptor antagonist methysergide relative to control. It is filed as functional.
In assay [11] the test system is Mus musculus. Briefly: Expectorant activity in ICR mouse assessed as phenol red secretion in trachea at 20 to 50 mg/kg, po for 3 days followed by phenol red treatment at 30 mins post last dose measured after 30 mins by UV-Vis spectrophotometric assay relative to control. It is filed as functional.
Assay [12] deals with Mus musculus. Briefly: Antitussive activity in ammonia liquor-induced cough ICR mouse model assessed as reduction in cough frequency at 50 mg/kg, po treated with ammonia 1 hr before and 1 hr after test compound dosing measured for 3 mins in presence of ATP-sensitive K+ channel blocker glibenclamide relative to control. It is filed as functional.
Assay [13] concerns Mus musculus. Put plainly: Antitussive activity in ammonia liquor-induced cough ICR mouse model assessed as reduction in cough frequency at 50 mg/kg, po treated with ammonia 1 hr before and 1 to 5 hrs after test compound dosing measured for 3 mins in presence of opioid receptor antagonist naloxone relative to control. The format is functional, organism-based.
The test system of assay [14] is Mus musculus. Briefly: Antitussive activity in ammonia liquor-induced cough ICR mouse model assessed as reduction in cough frequency at 20 mg/kg, po treated with ammonia 1 hr before and 1 to 5 hrs after test compound dosing measured for 3 mins relative to control. The format is functional, organism-based.
In assay [15] the test system is Mus musculus. Briefly: Antitussive activity in ammonia liquor-induced cough ICR mouse model assessed as increase in latent period at 20 mg/kg, po treated with ammonia 1 hr before and 1 to 5 hrs after test compound dosing measured at 1 hr post dose. It is filed as functional, organism-based.
Assay [16] concerns Mus musculus. Put plainly: Antitussive activity in ammonia liquor-induced cough ICR mouse model assessed as increase in latent period at 50 mg/kg, po treated with ammonia 1 hr before and 1 to 5 hrs after test compound dosing measured for 3 mins relative to control. The format is functional.

16 molecules from ChEMBL document CHEMBL4184180, “Antitussive and expectorant activities of licorice and its major compounds” (2018) can be followed below.

Active and inactive are the calls of the source. The calls are words filed in the database; no cut-off is given here.

Consider `CC1(C)[C@@H](O)CC[C@]2(C)[C@H]3C(=O)C=C4[C@@H]5C[C@@](C)(C(=O)O)CC[C@]5(C)CC[C@@]4(C)[C@]3(C)CC[C@@H]12` [ENOXOLONE], for which the Activity in assay [1] is 27 - 40%. Also, the result in assay [2] was inactive.
`CCN(CC)CCOCCOC(=O)C1(c2ccccc2)CCCC1.O=C(O)CC(O)(CC(=O)O)C(=O)O` [CARBETAPENTANE CITRATE]: the result in assay [3] was Active. The Activity was determined as 53% in assay [4], 58% in assay [5] and 50% in assay [6].
With `COc1c(CC=C(C)C)c(O)cc2oc(=O)c(-c3ccc(O)cc3O)cc12`, the outcome in assay [7], in assay [4], in [8], in assay [5], in [6] and in assay [9] was inactive.
Turning to `O=C(/C=C/c1ccc(O[C@H]2O[C@@H](CO)[C@H](O)[C@@H](O)[C@@H]2O[C@@H]2OC[C@](O)(CO)[C@H]2O)cc1)c1ccc(O)cc1O`, the result in assay [7] and in assay [5] was Active. Besides, the outcome in assay [4], in assay [8], in [6] and in assay [9] was inactive.
Turning to `O=C1C[C@@H](c2ccc(O[C@@H]3O[C@H](CO)[C@@H](O)[C@H](O)[C@H]3O)cc2)Oc2cc(O)ccc21` [LIQUIRITIN], the outcome in [4], in [6] and in assay [13] was Active. The result in assay [10] and in [12] was inactive. In addition, the Activity in assay [1] is listed as 30 - 78%; in assay [11] it was 249.8%. The “fold change (FC)” value in assay [2] came out at 2.5.
Regarding `O=C(/C=C/c1ccc(O[C@@H]2O[C@H](CO)[C@@H](O)[C@H](O)[C@H]2O)cc1)c1ccc(O)cc1O`, the outcome in assay [7], in assay [4], in [8], in [5], in assay [6] and in assay [9] was inactive.
As to `C=CC(C)(C)c1cc(/C=C/C(=O)c2ccc(O)cc2)c(OC)cc1O`, the result in assay [7], in assay [4], in assay [8], in assay [5], in assay [6] and in [9] was inactive.
For `CC1(C)[C@@H](O[C@H]2O[C@H](C(=O)O)[C@@H](O)[C@H](O)[C@H]2O[C@@H]2O[C@H](C(=O)O)[C@@H](O)[C@H](O)[C@H]2O)CC[C@]2(C)[C@H]3C(=O)C=C4[C@@H]5C[C@@](C)(C(=O)O)CC[C@]5(C)CC[C@@]4(C)[C@]3(C)CC[C@@H]12`, the outcome in [7], in assay [4], in [8], in assay [5], in assay [6] and in assay [9] was inactive. The outcome in [2] was inactive.
`CC(C)=CCc1cc(-c2coc3cc(O)c(CC=C(C)C)c(O)c3c2=O)cc(O)c1O`: the result in [7], in [4], in assay [8], in assay [5], in assay [6] and in assay [9] was inactive.
Regarding `O=C1C[C@@H](c2ccc(O[C@@H]3O[C@H](CO)[C@@H](O)[C@H](O)[C@H]3O[C@@H]3OC[C@](O)(CO)[C@H]3O)cc2)Oc2cc(O)ccc21`, the Activity in assay [10] is 30%; in assay [5], 79.1%; in assay [1] it was 30 - 78%; in [11], 196.6%; in [12], 28.2%. Also, the result in assay [14] and in assay [13] was Active. Also, the outcome in assay [15] was inactive. For the same molecule, the “fold change (FC)” value in assay [16] is on record as 1.3 - 1.9; in [2], 1.97.
Consider `O=C(/C=C/c1ccc(O)cc1)c1ccc(O)cc1O`, for which the result in assay [7], in assay [5] and in [2] was inactive. Besides, the result in assay [4], in [8], in assay [6] and in assay [9] was Active.
For the molecule `COc1ccccc1OCC(O)CO` (stereo not given) [GUAIFENESIN], the Activity in assay [11] stood at 299.5%. Also, the “fold change (FC)” value in assay [2] is recorded as 3.
For `CC(C)=CCc1cc2c(=O)cc(-c3ccc(O)cc3)oc2cc1O`, the result in assay [7], in [4], in [8], in assay [5], in assay [6] and in assay [9] was inactive.
Take `O=C1C[C@@H](c2ccc(O)cc2)Oc2cc(O)ccc21` [LIQUIRTIGENIN]: the result in assay [10] and in assay [12] was inactive. Besides, the result in assay [6] and in [13] was Active. In addition, the Activity in assay [1] is given as 30 - 78%; in assay [11] it was 156.7%. Moreover, the “fold change (FC)” value in assay [2] is recorded as 1.57.
In the case of `CC1(C)C=Cc2c(ccc3c2OC[C@@H](c2ccc(O)cc2O)C3)O1`, the result in [4] was Active.
As to `COc1cc(O)ccc1/C=C/C(=O)c1ccc(O)cc1`, the outcome in assay [7], in assay [4], in [8], in [5], in assay [6] and in assay [9] was inactive.
